Assay results as given in paper PMC11173002, “A Humanized CB1R Yeast Biosensor Enables Facile Screening of Cannabinoid Compounds” (International Journal of Molecular Sciences, 2024).
Entries after “also recorded” stand apart in the source; their conditions may differ. Like-named read-outs stand apart in the source and are kept apart here.

Assays:
Format in all cases: cell-based
syn-pre-pro-Δ89-CB1R [1] = target: T1, syn-pre-pro-Δ89-CB1R (Homo sapiens, UniProt P21554); experiment: cell-based; conditions: for EC50 values / activity in words: PINACA agonist series
T1 construct: expressed in transfected cells; host or cells: Saccharomyces cerevisiae BY4741-derived ZsGreen reporter strain (Gpa1-Gαi3 chimera; also sterol-modified strains ST01–ST15)

CB1 Cannabinoid Receptor = target: T2, CB1 Cannabinoid Receptor (Homo sapiens, UniProt P21554); experiment: Mammalian cell calcium assay (Gα15, Fluo-8 fluorescence); conditions: high concentrations (10 μM), four-point dose response
T2 construct: Since the human CB1R strain uses the full-length receptor; host or cells: Ready-to-Assay CB1 Cannabinoid Receptor Frozen Cells (commercial human cell line with promiscuous Gα15, division-arrested)
Procedure: To validate the findings and further evaluate the performance of our yeast screening assay, we retested a subset of our library in a conventional mammalian cell assay. We acquired human cell lines depleted of native GPCRs and containing the promiscuous Gα15, wherein GPCR activation triggers intracellular calcium release, which is measured by Fluo-8 fluorescence (see Section 4). We selected eight compounds for side-by-side testing between the yeast and human host for CB1R (Figure 4a–d). To maximize the number of compounds tested per plate, we performed a limited four-point dose response on the mammalian cells (Figure 4a,b).
Mammalian cell assays were performed in Eurofins Ready-to-Assay™ CB1 Cannabinoid Receptor Frozen Cells. Cells were division-arrested, which limited the number of samples that could be measured, so a limited 4-point dose response was performed. Cells were seeded in 96-well plates and grown for 24 h. Cells were washed with Hank’s Balanced Salt Solution (HBSS) with 20 mM HEPES and 2.5 mM Probenecid at pH 7.4. […] Cells with dye were incubated at 37 °C for 1 h before fluorescent measurement on a Flexstation 3-plate reader (Molecular Devices, San Jose, CA, USA). Baseline fluorescence was measured for 10 s before 50 μL ligands were injected into 100 μL cells. Samples were measured for 180 s and recorded values were measured as ΔF/F0 (Fmax − Fmin/Fmin).

Syn-pre-pro CB1R = target: T3, Syn-pre-pro CB1R (Homo sapiens, UniProt P21554); experiment: Yeast ZsGreen reporter strain with full-length syn-pre-pro CB1R
T3 construct: expressed in transfected cells; host or cells: Saccharomyces cerevisiae BY4741-derived ZsGreen reporter strain (Gpa1-Gαi3 chimera)

syn-pre-pro-Δ89-CB1R [2] = target: T1, syn-pre-pro-Δ89-CB1R; experiment: syn-pre-pro-Δ89-CB1R dose response in sterol-modified yeast strains ST01–ST15
Description: Ergosterol and cholesterol share a common zymosterol precursor that can be converted to cholesterol through a four-enzyme pathway that produces seven downstream metabolites (Figure 2b). We recently replaced the native yeast sterol pathway with cholesterol biosynthesis enzymes to create a small library of yeast strains that produce varying levels of these seven metabolites in the GpaI-Gai3 chimeric ZsGreen human GPCR reporter strain [30]. The syn-pre-pro-Δ89-CB1R expression construct was transformed into fifteen strains (ST01–ST15, Figure 2c, Supplementary Table S1) selected to cover the metabolic and structural sterol space. We then performed dose response experiments with ACEA and measured the ZsGreen via fluorescent cytometry.
Yeast colonies were picked and grown overnight to saturation in pH 5.8 SD-His media in a 2.2 mL deep well plate (Axygen, Corning, NY, USA), grown in a plate-shaking incubator (30 °C, 1000 rpm, 3 mm orbital). In the morning, cultures were diluted to 1:10 or 1:25 in SD-His media buffered to pH 7.1 with 100 mM MOPSO (unless otherwise specified). Ligands were added to the culture and incubated with shaking for 8 h. Cells were then washed three times with ice-cold Tris buffer (pH 7) and diluted to 1:20 for cytometry. All cytometry was performed on a Sony SA3800 spectral analyzer. Each sample was tested for 10,000 events and read at a rate of 1000 events per second. All assays as reported here were filtered only for singlet populations.

WT CB1R = target: T4, WT CB1R (Homo sapiens, UniProt P21554)
T4 construct: expressed in transfected cells; host or cells: Saccharomyces cerevisiae BY4741-derived ZsGreen reporter strain (Gpa1-Gαi3 chimera)

Δ89-CB1R = target: T5, Δ89-CB1R (Homo sapiens, UniProt P21554); experiment: Yeast ZsGreen reporter strain with N-terminally truncated CB1R
T5 construct: expressed in transfected cells; host or cells: Saccharomyces cerevisiae BY4741-derived ZsGreen reporter strain (Gpa1-Gαi3 chimera)

[3] = FUBINACA and PINACA compounds, 8 h, n = 3 (Figure 3), read-out: EC50, dose response
[4] = Supplementary Table S2, read-out: EC50 (M) Yeast CB1R
[5] = read-out: EC50, ACEA dose response
[6] = compound at 10 nM, screen, n = 1

T1 sequence (P21554 90-472 limits assumed, stated change not applied): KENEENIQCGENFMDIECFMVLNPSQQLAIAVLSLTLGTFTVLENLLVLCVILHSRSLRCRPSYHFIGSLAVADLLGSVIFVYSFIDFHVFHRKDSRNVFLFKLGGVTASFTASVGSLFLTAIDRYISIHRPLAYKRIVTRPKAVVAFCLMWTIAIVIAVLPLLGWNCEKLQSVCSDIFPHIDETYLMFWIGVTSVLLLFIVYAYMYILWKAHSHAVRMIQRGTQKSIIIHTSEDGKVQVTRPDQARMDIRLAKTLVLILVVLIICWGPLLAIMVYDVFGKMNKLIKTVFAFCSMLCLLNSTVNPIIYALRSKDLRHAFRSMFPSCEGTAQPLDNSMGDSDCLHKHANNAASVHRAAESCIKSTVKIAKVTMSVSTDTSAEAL
T5 sequence (P21554 with tags, fused parts or gaps): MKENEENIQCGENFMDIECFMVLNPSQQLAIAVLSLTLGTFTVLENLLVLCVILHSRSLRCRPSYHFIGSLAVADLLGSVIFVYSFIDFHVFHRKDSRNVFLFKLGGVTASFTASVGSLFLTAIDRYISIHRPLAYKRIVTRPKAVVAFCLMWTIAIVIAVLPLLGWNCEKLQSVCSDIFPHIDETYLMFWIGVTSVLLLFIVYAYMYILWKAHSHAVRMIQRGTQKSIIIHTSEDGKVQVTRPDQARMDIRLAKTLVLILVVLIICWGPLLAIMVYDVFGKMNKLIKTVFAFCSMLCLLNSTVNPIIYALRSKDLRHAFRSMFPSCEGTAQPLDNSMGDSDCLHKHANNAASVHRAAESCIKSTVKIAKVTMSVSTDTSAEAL
T3 sequence (P21554 whole entry): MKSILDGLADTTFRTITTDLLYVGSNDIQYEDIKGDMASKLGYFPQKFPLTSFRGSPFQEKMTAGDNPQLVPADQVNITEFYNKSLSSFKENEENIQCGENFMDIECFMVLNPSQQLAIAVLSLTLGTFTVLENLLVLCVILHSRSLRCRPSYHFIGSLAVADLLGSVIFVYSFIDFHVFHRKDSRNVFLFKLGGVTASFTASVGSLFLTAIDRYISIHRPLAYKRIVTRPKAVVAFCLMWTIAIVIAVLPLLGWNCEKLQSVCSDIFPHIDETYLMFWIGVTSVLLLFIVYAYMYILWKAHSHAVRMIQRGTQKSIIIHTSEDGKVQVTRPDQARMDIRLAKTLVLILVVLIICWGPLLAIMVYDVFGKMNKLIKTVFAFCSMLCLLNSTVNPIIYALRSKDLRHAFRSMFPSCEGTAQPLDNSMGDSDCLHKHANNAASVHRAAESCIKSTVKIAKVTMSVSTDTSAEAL
T4 sequence (P21554 whole entry): as above
T2 sequence (P21554 whole entry): as above

Which “EC50 values / activity in words” value (syn-pre-pro-Δ89-CB1R [1]) does the source give for `CC[C@H](C)[C@H](NC(=O)c1nn(CCCCCF)c2ccccc12)C(N)=O` (single isomer, unassigned) [5-fluoro ADB-PINACA isomer 2] here?
Its value is “drastic loss of activity”.

What about the “activity in the yeast assay” value (syn-pre-pro-Δ89-CB1R [1]; side-by-side with mammalian cells, high concentrations (10 μM), listed as 5-fluoro 2-ADB-PINACA isomer 2) of the same compound?
Its value is “lowest activity; also recorded: partial agonism”.

What about the “induction of calcium dye fluorescence” value (CB1 Cannabinoid Receptor) of the same compound?
Its value is “failed to induce significant levels of fluorescence”.

How did the “maximal signaling in dose response” value (syn-pre-pro-Δ89-CB1R [1]) turn out when `CCCC(NC(=O)c1nn(Cc2ccc(F)cc2)c2ccccc12)C(N)=O` (single isomer, unassigned) [AB-FUBINACA isomer 1] was run?
Its value is “high maximal signaling”.

And the EC50 (syn-pre-pro-Δ89-CB1R [1]; [3])?
Its EC50 is 1e-11 M.

What about the EC50 (syn-pre-pro-Δ89-CB1R [1]; [4]) of the same compound?
The EC50 was 4.74e-10 M.

With `CCC(C)(NC(=O)c1nn(Cc2ccc(F)cc2)c2ccccc12)C(N)=O` (single isomer, unassigned) [AB-FUBINACA isomer 2] as the compound, how does the “maximal signaling in dose response” value (syn-pre-pro-Δ89-CB1R [1]) read?
Its value is “lower response”.

What about the EC50 (syn-pre-pro-Δ89-CB1R [1]; [3]) of the same compound?
Its EC50 is 2.3e-10 M.

Which “maximal signaling in dose response” value (syn-pre-pro-Δ89-CB1R [1]) does the source give for `CCC(C(N)=O)N(C)C(=O)c1nn(Cc2ccc(F)cc2)c2ccccc12` (single isomer, unassigned) [AB-FUBINACA isomer 5] here?
The value was “lower response”.

What about the EC50 (syn-pre-pro-Δ89-CB1R [1]; [3]) of the same compound?
Its EC50 is 1.59e-08 M.

For `O=C(Oc1cccc2cnccc12)c1cn(CCCCCF)c2ccccc12` [5-fluoro PB-22 5-hydroxyisoquinoline isomer], which EC50 (syn-pre-pro-Δ89-CB1R [1]; [4]) is on record?
The EC50 was 9.09e-12 M.

Which “activity in terpene library screen” value (syn-pre-pro-Δ89-CB1R [1]) does the source give for `CC(C)=CCCC(C)CCO` (stereo not drawn) [(+)-β-Citronellol] here?
The value was “found to activate CB1R”.

For `CC(C)[C@H](NC(=O)c1cn(Cc2ccccc2)c2ccccc12)C(N)=O` [AB-BICA], which EC50 (syn-pre-pro-Δ89-CB1R [1]; [4]) is on record?
The EC50 was 5.66e-09 M.

What does the source list for `CC(C)C(NC(=O)c1nn(Cc2ccc(F)cc2)c2ccccc12)C(N)=O` (stereo not drawn) [AB-FUBINACA]?
maximal activity (syn-pre-pro-Δ89-CB1R [1]): 79–84%; maximal signaling in dose response (syn-pre-pro-Δ89-CB1R [1]): high maximal signaling; EC50 (syn-pre-pro-Δ89-CB1R [1]; EC50 (M) Yeast CB1R): 1.13e-11 M; EC50 (syn-pre-pro-Δ89-CB1R [1]; EC50, dose response): 6.6e-10 M

Which results are given for `CCCCCn1nc(C(=O)NC(C(N)=O)C(C)C)c2ccccc21` (stereo not drawn) [AB-PINACA]?
maximal activity (syn-pre-pro-Δ89-CB1R [1]): 79–84%; EC50 (syn-pre-pro-Δ89-CB1R [1]; [3]): 1.21e-09 M; EC50 values / activity in words (syn-pre-pro-Δ89-CB1R [1]): low nanomolar range

Which results are given for `CCCCC/C=C\C/C=C\C/C=C\C/C=C\CCCC(=O)NCCCl` [ACEA, Arachidonyl-2′-chloroethylamide]?
EC50 (Syn-pre-pro CB1R; Syn-pre-pro CB1R in yeast, 8 h, n = 3, read-out: EC50, ACEA dose response): 40 nM; fold activation (Syn-pre-pro CB1R; syn-pre-pro modification alone): approximately 7 fold; Fold Change CB1R (syn-pre-pro-Δ89-CB1R [2]; Strain ST01): 73.2 fold; EC50 (syn-pre-pro-Δ89-CB1R [2]; Strain ST01, read-out: EC50): 73 nM; EC50 (syn-pre-pro-Δ89-CB1R [2]; Strain ST02, read-out: EC50): 305 nM; EC50 (syn-pre-pro-Δ89-CB1R [2]; Strain ST03, read-out: EC50): 144 nM; EC50 (syn-pre-pro-Δ89-CB1R [2]; Strain ST04, read-out: EC50): 96 nM; EC50 (syn-pre-pro-Δ89-CB1R [2]; Strain ST05, read-out: EC50): 107 nM; EC50 (syn-pre-pro-Δ89-CB1R [2]; Strain ST06, read-out: EC50): 74 nM; EC50 (syn-pre-pro-Δ89-CB1R [2]; Strain ST08, read-out: EC50): 102 nM; EC50 (syn-pre-pro-Δ89-CB1R [2]; Strain ST09, read-out: EC50): 134 nM; EC50 (syn-pre-pro-Δ89-CB1R [2]; Strain ST10, read-out: EC50): 253 nM; EC50 (syn-pre-pro-Δ89-CB1R [2]; Strain ST11, read-out: EC50): 160 nM; EC50 (syn-pre-pro-Δ89-CB1R [2]; Strain ST12, read-out: EC50): 140 nM; Fold Change CB1R (syn-pre-pro-Δ89-CB1R [2]; Strain ST13): 34.3 fold; EC50 (syn-pre-pro-Δ89-CB1R [2]; Strain ST13, read-out: EC50): 99 nM; EC50 (syn-pre-pro-Δ89-CB1R [2]; Strain ST14, read-out: EC50): 640 nM; EC50 (syn-pre-pro-Δ89-CB1R [2]; Strain ST15, read-out: EC50): 604 nM; EC50 (syn-pre-pro-Δ89-CB1R [2]; cholesterol intermediate strain ST07, text value, read-out: EC50): 65 nM; EC50 (syn-pre-pro-Δ89-CB1R [2]; mean over ST01–ST15, read-out: average EC50 value across the intermediate strains): 199 nM; fold signaling (activation) (WT CB1R): < 4 fold; EC50 (WT CB1R; [5]): 1300 nM; fold activation (Δ89-CB1R; truncated receptor): 15 fold; EC50 (Δ89-CB1R; Δ89-CB1R in yeast, 8 h, n = 3, read-out: EC50, ACEA dose response): 5.05 µM; Fold Change CB1R (syn-pre-pro-Δ89-CB1R [1]): 93.6 ± 15.6 fold; drop in sensitivity compared to the full-length syn-pre-pro construct (syn-pre-pro-Δ89-CB1R [1]): 3.8 fold; fold activation (syn-pre-pro-Δ89-CB1R [1]): 28 fold; EC50 (syn-pre-pro-Δ89-CB1R [1]; [5]): 1.5e-07 M

How did the maximal activity (syn-pre-pro-Δ89-CB1R [1]) turn out when `CCCCCn1nc(C(=O)NC(C(N)=O)C(C)(C)C)c2ccccc21` (stereo not drawn) [ADB-PINACA] was run?
The maximal activity was 79–84%.

And the EC50 (syn-pre-pro-Δ89-CB1R [1]; [3])?
The EC50 was 9e-11 M.

What about the “EC50 values / activity in words” value (syn-pre-pro-Δ89-CB1R [1]) of the same compound?
Its value is “low nanomolar range”.

And the EC50 (syn-pre-pro-Δ89-CB1R [1]; [4])?
The EC50 was 8.34e-12 M.

Which “relative fluorescence of the ACEA positive control” value (from here on “relative fluorescence”) (syn-pre-pro-Δ89-CB1R [1]) does the source give for `CCCCCCC(C)(C)c1cc(O)c2c(c1)OC(C)(C)[C@H]1CC=C(CO)C[C@H]21` [HU-211] here?
The value was “less than 25%”.

For `Cc1c(C(=O)c2ccccc2)c(N)c(-c2ccccc2)n1Cc1ccc(Cl)cc1` [URB447], which “relative fluorescence” value (syn-pre-pro-Δ89-CB1R [1]; [6]) is on record?
The value was “less than 25%”.

How did the “relative fluorescence” value (syn-pre-pro-Δ89-CB1R [1]; [6]) turn out when `COc1ccc(C(=O)c2c(C)n(CCN3CCOCC3)c3cc(Br)ccc23)cc1` [WIN54,461] was run?
Its value is “less than 25%”.

With `C=C1CCC[C@]2(C)CC[C@@H](C(C)(C)O)C[C@@H]12` [β-Eudesmol] as the compound, how does the “activity in terpene library screen” value (syn-pre-pro-Δ89-CB1R [1]) read?
Its value is “found to activate CB1R”.

And the “signaling in terpene dose response” value (syn-pre-pro-Δ89-CB1R [1]; dose response, n = 3)?
Its value is “showed signaling at high (10 µM) concentrations”.
